{
  "source": "patent US20110135755A1",
  "about": "“Combination therapies for treating neoplastic disease” (priority 2009, published 2011)",
  "key": {"[1]": {"tested_on": "HCT 8 and T47D cell lines", "experiment": "MTT, SRB and CVE assays with exposure of up to 10 days", "type": "cell-based", "details": "18000 and 26000 cells/well", "excerpt": "Graphs depicting the results obtained are shown in FIGS. 6 to 11 (it should be noted that some graphs have the x axis displaying cancer cell kill, whilst others display cancer cell viability)."}, "[2]": {"experiment": "Element concentrations in kidney samples of treated rats", "type": "in vivo", "details": "rat kidney; cisplatin single iv 6.5 mg/kg; CV247 oral 3 ml/kg bd, fourteen days", "excerpt": "Liver and kidney samples were subsequently examined to see if CV 247 protected the rats from the accumulation of platinum and platinum free radicals, and what kind of metal ion concentration changes occur after treatment."}},
  "note": "“Also recorded” adds a separate entry of the source.",
  "data": [
    {"compound": "N.N.[Cl][Pt][Cl]", "note": "[Cisplatin, cis-diamminedichloroplatinum]", "values": [
      {"measurement": "effect on cancer cell kill / viability at cisplatin dose of 1 mg", "setting": "[1]; cisplatin 1 mg alone or with CV247", "value": "only a marginal long term benefit; also recorded: effect after 4 days was often reduced"},
      {"measurement": "effect on cancer cell kill / viability", "setting": "[1]; high doses of cisplatin, CV247 alone", "value": "cytotoxic"},
      {"measurement": "Pt", "setting": "[2]", "value": "3.048 ± 0.583"}
    ]}
  ]
}
